From patent publication US6426229B1, “Chelating agent and detergent comprising the same” (Mitsubishi Rayon Co., Ltd., priority 1995, dated 2002)

experiment: Compression strength (hardening property) of powder stored under load for 2 months; assay type: physicochemical; conditions: Load 100 (table head [Kg]; text 100 g/cm^2); 20-30° C., relative humidity 40-70%
Procedure: Method for the Measurement of Compression Strength
(1) A test sample (500 g) is put in a poly-ethylene bag of 20 cm×20 cm in a room at a temperature of 20-30° C. and a relative humidity of 40-70%. The powder is levelled to an area of 20 cm×20 cm and air is forced out of the bag, and, then, the bag is sealed. This bag is further put in a kraft bag and this kraft bag is sealed.
(2) The kraft bag of (1) is placed horizontally on a flat plate and a plate is put thereon. […]
(3) With keeping the temperature of 20-30° C. and the relative humidity of 40-70%, the test sample is taken out after lapse of 2 months from the starting of application of load. Several test pieces (4 cm long×4 cm broad×2 cm high) are cut out from the sample.

**Q.** For `O=C([O-])CCN[C@@H](CC(=O)[O-])C(=O)[O-].[Na+].[Na+].[Na+]` [Example 6, trisodium salt of (S)-aspartic acid-N-monopropionic acid], which “Compression strength after stored for 2 months” value (“Compression strength” for short) is on record?
**A.** 1.2 Kg/cm^2

**Q.** With `O=C(O)C[C@H](NCCCN[C@@H](CC(=O)O)C(=O)O)C(=O)O` [Example 69, (S,S)-1,3-propanediaminedisuccinic acid] as the compound, how does the “Compression strength” value read?
**A.** 1.0 Kg/cm^2

**Q.** With `O=C([O-])C[C@@H](C(=O)[O-])N(CC(=O)[O-])CC(=O)[O-].[Na+].[Na+].[Na+].[Na+]` [Example 7, tetrasodium salt of (S)-aspartic acid-N,N-diacetic acid] as the compound, how does the “Compression strength” value read?
**A.** 1.3 Kg/cm^2

**Q.** With `O=C(O)C[C@@H](C(=O)O)N(CC(=O)O)CC(=O)O` [Example 19, (S)-aspartic acid-N,N-diacetic acid] as the compound, how does the “Compression strength” value read?
**A.** 1.1 Kg/cm^2

**Q.** With `O=C(O)CN[C@@H](CC(=O)O)C(=O)O` [Example 17, (S)-aspartic acid-N-monoacetic acid] as the compound, how does the “Compression strength” value read?
**A.** 0.9 Kg/cm^2

**Q.** For `O=C(O)CCN[C@@H](CC(=O)O)C(=O)O` [Example 18, (S)-aspartic acid-N-monopropionic acid], which “Compression strength” value is on record?
**A.** 1.2 Kg/cm^2

**Q.** For “iron salt of anthranilic acid-N,N-diacetic acid [compound 15, reference compound]”, which “Compression strength” value is on record?
**A.** 2.5 Kg/cm^2

**Q.** Which “Compression strength” value does the source give for `O=C([O-])C[C@@H](C(=O)[O-])N(CC(=O)[O-])CC(=O)[O-].[Na+].[Na+].[Na+].[Na+]` [compound 3, tetrasodium salt of (S)-aspartic acid-N,N-diacetic acid, reference compound] here?
**A.** 3.2 Kg/cm^2

**Q.** With `O=C([O-])CN(CC(=O)[O-])c1ccccc1C(=O)[O-].[Na+].[Na+].[Na+]` [compound 11, trisodium salt of anthranilic acid-N,N-diacetic acid, reference compound] as the compound, how does the “Compression strength” value read?
**A.** 2.5 Kg/cm^2

**Q.** Which “Compression strength” value does the source give for `O=C(O)C[C@@H](C(=O)O)N(CC(=O)O)CC(=O)O` [compound 7, (S)-aspartic acid-N,N-diacetic acid, reference compound] here?
**A.** 2.3 Kg/cm^2

**Q.** For `O=C(O)C[C@H](NCC(O)CN[C@@H](CC(=O)O)C(=O)O)C(=O)O` [compound 25, (S,S)-2-hydroxy-1,3-propanediaminedisuccinic acid, reference compound], which “Compression strength” value is on record?
**A.** 2.5 Kg/cm^2

**Q.** For `O=C(O)C[C@H](NCCN[C@@H](CC(=O)O)C(=O)O)C(=O)O` [Example 67, (S,S)-ethylenediaminedisuccinic acid], which “Compression strength” value is on record?
**A.** 1.1 Kg/cm^2

**Q.** Which “Compression strength” value does the source give for `O=C([O-])C[C@H](NCCCN[C@@H](CC(=O)[O-])C(=O)[O-])C(=O)[O-].[Na+].[Na+].[Na+].[Na+]` [compound 19, tetrasodium (S,S)-1,3-propanediaminedisuccinate, reference compound] here?
**A.** 2.9 Kg/cm^2

**Q.** For `O=C(O)CC(NCCCNC(CC(=O)O)C(=O)O)C(=O)O` (stereo not shown) [compound 23, 1,3-propanediaminedisuccinic acid, reference compound], which “Compression strength” value is on record?
**A.** 2.7 Kg/cm^2

**Q.** For `O=C([O-])C[C@H](NCCN[C@@H](CC(=O)[O-])C(=O)[O-])C(=O)[O-].[Na+].[Na+].[Na+].[Na+]` [Example 52, tetrasodium (S,S)-ethylenediaminedisuccinate], which “Compression strength” value is on record?
**A.** 1.0 Kg/cm^2

**Q.** Which “Compression strength” value does the source give for `O=C(O)CC(NCCCNC(CC(=O)O)C(=O)O)C(=O)O` (stereo not shown) [Example 68, 1,3-propanediaminedisuccinic acid] here?
**A.** 1.2 Kg/cm^2

**Q.** For `O=C(O)CN[C@@H](CC(=O)O)C(=O)O` [compound 5, (S)-aspartic acid-N-monoacetic acid, reference compound], which “Compression strength” value is on record?
**A.** 2.8 Kg/cm^2

**Q.** With `CN(CC(=O)[O-])CC(=O)[O-].[Na+].[Na+]` [Example 29, disodium N-methyliminodiacetate] as the compound, how does the “Compression strength” value read?
**A.** 1.2 Kg/cm^2

**Q.** For `O=C([O-])CN[C@@H](CC(=O)[O-])C(=O)[O-].[Na+].[Na+].[Na+]` [Example 5, trisodium salt of (S)-aspartic acid-N-monoacetic acid], which “Compression strength” value is on record?
**A.** 1.2 Kg/cm^2

**Q.** For `O=C([O-])C[C@H](NCC(O)CN[C@@H](CC(=O)[O-])C(=O)[O-])C(=O)[O-].[Na+].[Na+].[Na+].[Na+]` [compound 20, tetrasodium (S,S)-2-hydroxy-1,3-propanediaminedisuccinate, reference compound], which “Compression strength” value is on record?
**A.** 2.7 Kg/cm^2

**Q.** For `O=C(O)C[C@H](NCCCN[C@@H](CC(=O)O)C(=O)O)C(=O)O` [compound 24, (S,S)-1,3-propanediaminedisuccinic acid, reference compound], which “Compression strength” value is on record?
**A.** 2.8 Kg/cm^2

**Q.** Which “Compression strength” value does the source give for `C[C@@H](C(=O)O)N(CC(=O)O)CC(=O)O` [compound 8, (S)-α-alanine-N,N-diacetic acid, reference compound] here?
**A.** 2.6 Kg/cm^2

**Q.** For `O=C(O)C[C@H](NCC(O)CN[C@@H](CC(=O)O)C(=O)O)C(=O)O` [Example 70, (S,S)-2-hydroxy-1,3-propanediaminedisuccinic acid], which “Compression strength” value is on record?
**A.** 0.8 Kg/cm^2

**Q.** For `O=C(O)CN(CC(=O)O)c1ccccc1C(=O)O` [Example 39, anthranilic acid-N,N-diacetic acid], which “Compression strength” value is on record?
**A.** 1.2 Kg/cm^2

**Q.** Which “Compression strength” value does the source give for `O=C([O-])CN(CC(=O)[O-])c1ccccc1C(=O)[O-].[Na+].[Na+].[Na+]` [Example 30, trisodium salt of anthranilic acid-N,N-diacetic acid] here?
**A.** 1.2 Kg/cm^2

**Q.** Which “Compression strength” value does the source give for `O=C([O-])CCN[C@@H](CC(=O)[O-])C(=O)[O-].[Na+].[Na+].[Na+]` [compound 2, trisodium salt of (S)-aspartic acid-N-monopropionic acid, reference compound] here?
**A.** 3.0 Kg/cm^2

**Q.** For `O=C(O)CN(CC(=O)O)c1ccccc1C(=O)O` [compound 14, anthranilic acid-N,N-diacetic acid, reference compound], which “Compression strength” value is on record?
**A.** 2.5 Kg/cm^2

same assay, conditions: Load 200 (table head [Kg]; text 200 g/cm^2); 20-30° C., relative humidity 40-70%

**Q.** Which “Compression strength” value does the source give for `O=C([O-])C[C@H](NCC(O)CN[C@@H](CC(=O)[O-])C(=O)[O-])C(=O)[O-].[Na+].[Na+].[Na+].[Na+]` [Example 50, tetrasodium (S,S)-2-hydroxy-1,3-propanediaminedisuccinate] here?
**A.** 1.2 Kg/cm^2

**Q.** Which “Compression strength” value does the source give for `O=C(O)C[C@H](NCC(O)CN[C@@H](CC(=O)O)C(=O)O)C(=O)O` [Example 65, (S,S)-2-hydroxy-1,3-propanediaminedisuccinic acid] here?
**A.** 1.0 Kg/cm^2

**Q.** With `O=C(O)C[C@H](NCCN[C@@H](CC(=O)O)C(=O)O)C(=O)O` [Example 61, ethylenediaminedisuccinic acid] as the compound, how does the “Compression strength” value read?
**A.** 0.9 Kg/cm^2

**Q.** With `C[C@@H](C(=O)[O-])N(CC(=O)[O-])CC(=O)[O-].[Na+].[Na+].[Na+]` [Example 4, trisodium salt of (S)-α-alanine-N,N-diacetic acid] as the compound, how does the “Compression strength” value read?
**A.** 1.1 Kg/cm^2

**Q.** Which “Compression strength” value does the source give for `O=C(O)CN(CCS(=O)(=O)O)CC(=O)O` [Example 34, taurine-N,N-diacetic acid] here?
**A.** 1.2 Kg/cm^2

**Q.** Which “Compression strength” value does the source give for `O=C([O-])CC(NCCNC(CC(=O)[O-])C(=O)[O-])C(=O)[O-].[Na+].[Na+].[Ni+2]` (stereo not shown) [Example 78, nickel disodium ethylenediaminedisuccinate] here?
**A.** 1.0 Kg/cm^2

**Q.** With `O=C([O-])CC(NCCNC(CC(=O)[O-])C(=O)[O-])C(=O)[O-].[Na+].[Na+].[Na+].[Na+]` (stereo not shown) [Example 46, tetrasodium ethylenediaminedisuccinate] as the compound, how does the “Compression strength” value read?
**A.** 1.1 Kg/cm^2

**Q.** With `O=C([O-])CN(CC(=O)[O-])c1ccccc1C(=O)[O-].[Na+].[Na+].[Na+]` [Example 27, trisodium salt of anthranilic acid-N,N-diacetic acid] as the compound, how does the “Compression strength” value read?
**A.** 1.0 Kg/cm^2

**Q.** For `O=C([O-])C[C@H](NCCN[C@@H](CC(=O)[O-])C(=O)[O-])C(=O)[O-].[Fe+3].[NH4+]` [Example 79, iron ammonium (S,S)-ethylenediaminedisuccinate], which “Compression strength” value is on record?
**A.** 0.9 Kg/cm^2

**Q.** With `O=C([O-])CCN[C@@H](CC(=O)[O-])C(=O)[O-].[Na+].[Na+].[Na+]` [Example 2, trisodium salt of (S)-aspartic acid-N-monopropionic acid] as the compound, how does the “Compression strength” value read?
**A.** 1.0 Kg/cm^2

**Q.** With `CN(CC(=O)[O-])CC(=O)[O-].[Na+].[Na+]` [Example 26, disodium N-methyliminodiacetate] as the compound, how does the “Compression strength” value read?
**A.** 1.2 Kg/cm^2

same assay, conditions: Load 300 (table head [Kg]; text 300 g/cm^2); 20-30° C., relative humidity 40-70%

**Q.** Which “Compression strength” value does the source give for `O=C([O-])CN(CC(=O)[O-])c1ccccc1C(=O)[O-].[Na+].[Na+].[Na+]` [Example 33, trisodium salt of anthranilic acid-N,N-diacetic acid] here?
**A.** 0.9 Kg/cm^2

**Q.** For `O=C([O-])CN(CCS(=O)(=O)[O-])CC(=O)[O-].[Na+].[Na+].[Na+]` [Example 31, trisodium salt of taurine-N,N-diacetic acid], which “Compression strength” value is on record?
**A.** 1.0 Kg/cm^2

**Q.** For `CN(CC(=O)O)CC(=O)O` [Example 41, N-methyliminodiacetic acid], which “Compression strength” value is on record?
**A.** 1.0 Kg/cm^2

**Q.** With `O=C(O)C[C@H](NCC(O)CN[C@@H](CC(=O)O)C(=O)O)C(=O)O` [Example 75, (S,S)-2-hydroxy-1,3-propanediaminedisuccinic acid] as the compound, how does the “Compression strength” value read?
**A.** 1.0 Kg/cm^2

**Q.** With `C[C@@H](C(=O)O)N(CC(=O)O)CC(=O)O` [Example 24, (S)-α-alanine-N,N-diacetic acid] as the compound, how does the “Compression strength” value read?
**A.** 0.9 Kg/cm^2
